{"source": "patent US20140343000A1", "about": "(priority 2011, published 2014)"}
{"tested_on": "recombinant NL4-3 virus (Renilla luciferase in nef, Gag P373S; NLRluc) in MT-2 cells", "experiment": "whole plant or invertebrate", "type": "cell-based, HIV", "conditions": "Renilla, NL43, luciferase activity in cells infected for 4-5 days with NLRluc recombinants, serial dilutions of inhibitor; class symbols (key in Table 1); read-out: EC50", "how_it_was_run": "(§1)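 Luciferase signal is the read-out: after 4-5 days of infection in the presence of serially diluted compound, MT-2 cells are lysed with a premix of lysis buffer, luciferase reagent and Stop & Glo substrate, and luminescence is read immediately.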", "units": {"EC50": "µM"}}
{"smiles": "CC(C)[C@@H]1CC[C@]2(NC(=O)CN3CCS(=O)(=O)CC3)CC[C@]3(C)[C@H](CC[C@@H]4[C@@]5(C)CC[C@H](c6ccc(C(=O)O)cc6)C(C)(C)[C@@H]5CC[C@]43C)[C@@H]12", "note": "[Example 130, 4-((1S,3aS,5aR,5bR,7aS,9S,11aS,11bR,13aR,13bR)-3a-(((1,1-dioxido-4-thiomorpholinyl)acetyl)amino)-1-isopropyl-5a,5b,8,8,11a-pentamethylicosahydro-1H-cyclopenta[a]chrysen-9-yl)benzoic acid]", "EC50": "< 0.1"}
{"smiles": "C=C(C)[C@@H]1CC[C@]2(NC(=O)N(C)CCCN(C)C)CC[C@]3(C)[C@H](CC[C@@H]4[C@@]5(C)CC=C(c6ccc(C(=O)O)cc6)C(C)(C)[C@@H]5CC[C@]43C)[C@@H]12", "note": "[Example 46, 4-((1R,3aS,5aR,5bR,7aR,11aS,11bR,13aR,13bR)-3a-(3-(3-(dimethylamino)propyl)-3-methylureido)-5a,5b,8,8,11a-pentamethyl-1-(prop-1-en-2-yl)-2,3,3a,4,5,5a,5b,6,7,7a,8,11,11a,11b,12,13,13a,13b-octadecahydro-1H-cyclopenta[a]chrysen-9-yl)benzoic acid]", "EC50": "< 0.1"}
{"smiles": "C=C(C)[C@@H]1CC[C@]2(NC(=O)CN3CCCCC3)CC[C@]3(C)[C@H](CC[C@@H]4[C@@]5(C)CC=C(c6ccc(C(=O)O)cc6)C(C)(C)[C@@H]5CC[C@]43C)[C@@H]12", "note": "[Example 122, 4-((1R,3aS,5aR,5bR,7aR,11aS,11bR,13aR,13bR)-5a,5b,8,8,11a-pentamethyl-3a-(2-(piperidin-1-yl)acetamido)-1-(prop-1-en-2-yl)-2,3,3a,4,5,5a,5b,6,7,7a,8,11,11a,11b,12,13,13a,13b-octadecahydro-1H-cyclopenta[a]chrysen-9-yl)benzoic acid]", "EC50": "< 0.1"}
{"smiles": "C=C(C)[C@@H]1CC[C@]2(NC(=O)NCCCN3CCS(=O)(=O)CC3)CC[C@]3(C)[C@H](CC[C@@H]4[C@@]5(C)CC=C(c6ccc(C(=O)O)cc6)C(C)(C)[C@@H]5CC[C@]43C)[C@@H]12", "note": "[Example 22, 4-((1R,3aS,5aR,5bR,7aR,11aS,11bR,13aR,13bR)-3a-(((3-(1,1-dioxido-4-thiomorpholinyl)propyl)carbamoyl)amino)-1-isopropenyl-5a,5b,8,8,11a-pentamethyl-2,3,3a,4,5,5a,5b,6,7,7a,8,11,11a,11b,12,13,13a,13b-octadecahydro-1H-cyclopenta[a]chrysen-9-yl)benzoic acid]", "EC50": "< 0.1"}
{"smiles": "C=C(C)[C@@H]1CC[C@]2(NC(=O)NCCC(=O)O)CC[C@]3(C)[C@H](CC[C@@H]4[C@@]5(C)CC=C(c6ccc(C(=O)O)cc6)C(C)(C)[C@@H]5CC[C@]43C)[C@@H]12", "note": "[Example 33, 4-((1R,3aS,5aR,5bR,7aR,11aS,11bR,13aR,13bR)-3a-(3-(2-carboxyethyl)ureido)-5a,5b,8,8,11a-pentamethyl-1-(prop-1-en-2-yl)-2,3,3a,4,5,5a,5b,6,7,7a,8,11,11a,11b,12,13,13a,13b-octadecahydro-1H-cyclopenta[a]chrysen-9-yl)benzoic acid]", "EC50": "< 0.1"}
{"tested_on": "recombinant NL4-3 virus (Renilla luciferase in nef, Gag P373S; NLRluc) in MT-2 cells", "experiment": "whole plant or invertebrate", "type": "cell-based, HIV", "conditions": "Renilla, NL43, luciferase activity in cells infected for 4-5 days with NLRluc recombinants, serial dilutions of inhibitor; numeric values; read-out: EC50", "how_it_was_run": "as §1", "units": {"EC50": "µM"}}
{"smiles": "C=C(C)[C@@H]1CC[C@]2(N(CCN3CCCC3)CCN3CCCC3)CC[C@]3(C)[C@H](CC[C@@H]4[C@@]5(C)CC=C(c6ccc(C(=O)O)cc6)C(C)(C)[C@@H]5CC[C@]43C)[C@@H]12", "note": "[Example 167, 4-((1R,3aS,5aR,5bR,7aR,11aS,11bR,13aR,13bR)-3a-(bis(2-(pyrrolidin-1-yl)ethyl)amino)-5a,5b,8,8,11a-pentamethyl-1-(prop-1-en-2-yl)-2,3,3a,4,5,5a,5b,6,7,7a,8,11,11a,11b,12,13,13a,13b-octadecahydro-1H-cyclopenta[a]chrysen-9-yl)benzoic acid]", "EC50": 0.004}
